# Laboratory results reported in ChEMBL document CHEMBL1201862, “PubChem BioAssay data set” (2004).
# The source made the active and inactive calls.
# Experiments:
# [1] = inhibitors of PGC1a acetylation in cells, dose response, cell-based, cherry-picked samples (AID 720514); type: functional;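 further: potency may reflect raised or lowered acetylation signal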
# [2] = Mtb BioA inhibitors by displacement, dose response, biochemical, coupled fluorescence displacement, 20-point, dry powder (AID 743357); type: functional
# [3] = HEK293 cell cytotoxicity, dose response, cytotoxicity control, luminescence, dry powder, set 12 (AID 743354); type: functional, cell-based
# [4] = P. falciparum 3D7-ScDHODH growth inhibitors, dose response, SYBR Green, dry powder samples (AID 1159570); type: functional, cell-based;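 further: parasite growth measured after 72 hours of compound exposure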
# [5] = HepG2 cell cytotoxicity, dose response, cytotoxicity control, plate reader, dry powder samples (AID 1159569); type: functional, cell-based;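 further: inhibitor potency with signal falling toward the positive control level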
# [6] = P. falciparum Dd2 growth inhibitors, dose response, SYBR Green, cherry-picked samples (AID 1159567); type: functional, cell-based
# [7] = P. falciparum Dd2 growth inhibitors, dose response, SYBR Green, dry powder samples (AID 1159566); type: functional, cell-based;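 further: potency for growth inhibition with lower SYBR green DNA signal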
# [8] = Plasmodium falciparum Dd2 Sybr green parasite growth Measured in Cell-Based and Microorganism Combination System Using Plate Reader - 2153-01_Inhibitor_Dose_DryPowder_Activity_Set3.; type: functional
# [9] = P. falciparum ATP4 D1247Y mutant growth inhibitors, dose response, NITD609-resistant line, SYBR Green, dry powder (AID 1159571); type: functional, cell-based;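 further: parasites synchronized at ring stage by sorbitol before testing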
# [10] = A Cell-Based Confirmatory Screen for Compounds that Inhibit VEEV, TC-83 (8).; type: functional
# [11] = A Cell-Based Confirmatory Screen for Compounds that Inhibit VEEV, TC-83 (5).; type: functional
# [12] = Dose-response inhibition of insulin secretion in a rat insulinoma line at 5 mM glucose (AID 1117331); type: functional, cell-based; conditions: INS-1E
# [13] = half-maximal inhibitory concentration for glucagon-like peptide-1 release, STC-1 cell line, dose-response (AID 1117345); type: functional, cell-based
# [14] = Glucagon-like peptide 1 release potency, NCI-H716 cell line, dose-response, half-maximal inhibitory concentration (AID 1117344); type: functional, cell-based
# [15] = NIH-3T3 fibroblast cytotoxicity, dose response, cytotoxicity control, cell-based, fluorescence, Alamar Blue, secondary assay (AID 2327); type: functional;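 further: NIH-3T3 mouse fibroblasts cultured with fluconazole at 8 µg/mL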
# [16] = C. albicans growth with fluconazole, confirmation, fluorescence, retest (AID 2467); type: functional, cell-based
# Paired box protein Pax-8 = Paired box protein Pax-8 (Homo sapiens, UniProt Q06710); experiment: inhibitors of PAX8-driven TPO luciferase reporter, dose response, RMG-I cells, cherry-pick (AID 687027); type: functional, cell-based;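 further: luciferase reporter driven by Pax8 target thyroperoxidase promoter measured by SteadyGlo luminescence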
# Chain of Paired box protein Pax-8 (Q06710 whole entry): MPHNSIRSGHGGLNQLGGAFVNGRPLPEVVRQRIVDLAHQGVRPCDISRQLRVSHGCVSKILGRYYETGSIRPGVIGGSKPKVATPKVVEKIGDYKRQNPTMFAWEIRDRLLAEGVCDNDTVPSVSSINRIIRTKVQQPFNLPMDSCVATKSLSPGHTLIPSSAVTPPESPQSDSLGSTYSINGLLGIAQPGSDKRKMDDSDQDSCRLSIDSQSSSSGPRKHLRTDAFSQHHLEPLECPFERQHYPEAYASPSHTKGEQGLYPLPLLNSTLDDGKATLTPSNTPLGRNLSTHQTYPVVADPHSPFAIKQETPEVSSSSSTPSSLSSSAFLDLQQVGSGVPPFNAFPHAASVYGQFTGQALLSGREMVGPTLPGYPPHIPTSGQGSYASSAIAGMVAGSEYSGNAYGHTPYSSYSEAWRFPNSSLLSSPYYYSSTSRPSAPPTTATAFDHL
# [17] = PAX2 cell-based inhibition, dose response, selectivity assay for PAX8 inhibitor project, plate reader, dry powder samples (AID 743048); type: functional;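 further: HEK293 cells carrying a WT1 promoter luciferase reporter driven by expressed Pax2; potency is for inhibition of Pax2 driven reporter signal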
# [18] = NIH:OVCAR-3 ovarian cancer cell cytotoxicity, dose response, PAX8 inhibitor project, plate reader, dry powder samples (AID 743044); type: functional, cell-based
# [19] = IGROV1 ovarian cancer cell cytotoxicity, dose response, PAX8 inhibitor project, plate reader, dry powder samples (AID 743043); type: functional, cell-based; conditions: IGROV-1
# [20] = cytotoxicity in OVCAR4 cells, dose response, cytotoxicity control for PAX8 inhibitor project, cell-based, plate reader, dry powder, SA11 (AID 743150); type: functional; conditions: OVCAR-4
# [21] = cytotoxicity in COV434 cells, dose response, cytotoxicity control for PAX8 inhibitor project, cell-based, plate reader, dry powder, SA7 (AID 743145); type: functional
# [22] = cytotoxicity in OV-90 ovarian cancer cells, dose response, PAX8 inhibitor project, cell-based, plate reader, dry powder, SA8 (AID 743149); type: functional
# [23] = cytotoxicity dependent on PAX8, dose response, cell-based, plate reader, dry powder (AID 743049); type: functional
# [24] = target: T1, Methionyl-tRNA synthetase, putative (Trypanosoma brucei brucei, UniProt Q38C91); type: functional, Trypanosoma brucei brucei strain 927/4 GUTat10.1
# T1 sequence (Q38C91 whole entry): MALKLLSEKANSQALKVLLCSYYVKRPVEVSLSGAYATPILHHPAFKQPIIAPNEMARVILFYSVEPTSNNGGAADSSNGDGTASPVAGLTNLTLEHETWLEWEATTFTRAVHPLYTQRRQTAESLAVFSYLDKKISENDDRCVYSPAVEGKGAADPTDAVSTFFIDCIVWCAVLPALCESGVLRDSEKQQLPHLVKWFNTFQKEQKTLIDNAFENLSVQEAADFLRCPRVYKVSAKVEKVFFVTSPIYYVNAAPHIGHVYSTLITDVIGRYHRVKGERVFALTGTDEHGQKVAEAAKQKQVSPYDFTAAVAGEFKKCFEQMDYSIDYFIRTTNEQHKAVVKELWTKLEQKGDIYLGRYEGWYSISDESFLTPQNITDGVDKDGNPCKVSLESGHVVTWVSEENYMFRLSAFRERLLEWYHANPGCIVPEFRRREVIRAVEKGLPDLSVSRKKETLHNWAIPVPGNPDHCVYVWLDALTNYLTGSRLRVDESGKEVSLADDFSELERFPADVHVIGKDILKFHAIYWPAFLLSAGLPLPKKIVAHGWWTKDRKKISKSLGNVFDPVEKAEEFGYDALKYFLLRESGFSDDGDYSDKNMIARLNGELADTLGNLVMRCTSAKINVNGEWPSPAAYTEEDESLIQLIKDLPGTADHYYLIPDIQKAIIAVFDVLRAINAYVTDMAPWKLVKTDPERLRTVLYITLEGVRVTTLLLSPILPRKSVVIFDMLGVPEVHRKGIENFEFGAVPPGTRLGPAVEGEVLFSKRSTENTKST
# [25] = Counterscreen for inhibitors of Trypanosoma brucei methionyl tRNA synthetase (MetRS): Luminescence-based cell-based high throughput dose response assay to identify compounds that are cytotoxic to Jurkat human T lymphocyte cells.; type: functional
# [26] = target: T1, Methionyl-tRNA synthetase, putative; type: functional, Trypanosoma brucei brucei strain 927/4 GUTat10.1; remark: listed apart in the source
# [27] = Late stage counterscreen for inhibitors of Trypanosoma brucei methionyl tRNA synthetase (MetRS): Luminescence-based cell-based high throughput dose response assay to identify compounds that are cytotoxic to Jurkat human T lymphocyte cells.; type: functional
# Troponin, cardiac muscle = Troponin, cardiac muscle (Homo sapiens, UniProt P19429+P45379+P63316); experiment: Fluorescence-based biochemical high throughput dose response assay for activators of the calcium sensitivity of cardiac Regulated Thin Filaments (RTF). [Related pubchem assays (depositor defined):AID493008, AID493018, AID504382, AID504383]; type: protein-complex assay
# Fibrinogen beta chain [28] = target: T2, Fibrinogen beta chain (Homo sapiens, UniProt P02675); experiment: Fluorescence polarization-based biochemical high throughput dose response assay to identify inhibitors that disrupt the binding of a cyclic peptide (Tn6) to the fibrin proteolytic product D-Dimer and fragment E complex [DD(E )].
# T2 sequence (P02675 whole entry, the tested form may be a part): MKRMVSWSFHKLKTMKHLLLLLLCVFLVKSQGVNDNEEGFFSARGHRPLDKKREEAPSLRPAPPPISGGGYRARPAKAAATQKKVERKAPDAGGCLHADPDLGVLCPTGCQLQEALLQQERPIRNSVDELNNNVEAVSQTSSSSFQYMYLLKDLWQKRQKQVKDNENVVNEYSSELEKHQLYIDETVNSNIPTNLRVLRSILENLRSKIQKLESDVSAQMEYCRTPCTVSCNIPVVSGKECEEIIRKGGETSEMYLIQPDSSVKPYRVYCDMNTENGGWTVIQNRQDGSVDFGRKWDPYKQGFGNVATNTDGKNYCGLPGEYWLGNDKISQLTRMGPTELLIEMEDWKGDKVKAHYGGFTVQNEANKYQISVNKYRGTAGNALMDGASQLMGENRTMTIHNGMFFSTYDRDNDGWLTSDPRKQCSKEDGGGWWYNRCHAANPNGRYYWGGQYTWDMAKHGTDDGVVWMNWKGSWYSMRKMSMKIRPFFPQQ
# Fibrinogen beta chain [29] = target: T2, Fibrinogen beta chain; experiment: Fluorescence polarization-based biochemical high throughput dose response assay to identify inhibitors that disrupt the binding of a cyclic peptide (Tn7) to the fibrin proteolytic product D-Dimer and fragment E complex [DD(E )].
smiles,measurement,setting,value
CC(=O)Nc1ccc2c(CSc3nncs3)cc(=O)oc2c1,AC50,[1],26.5 µM (active)
CN1c2ccc(-c3cccc(F)c3)cc2[C@H]2[C@H](CCN2C(=O)CCCCCCN)[C@H]1CO,AC50,[2],13 µM (active)
same,AC50,[3],> 52 µM (inactive)
CO[C@@H]1CN(C)C(=O)c2ccc(NC(=O)C3CC3)cc2OC[C@@H](C)N(Cc2cc(F)ccc2F)C[C@H]1C,AC50,[4],5.77 µM (active)
same,AC50,[5],76.2 µM (active)
same,AC50,[6],1.22 µM (active)
same,AC50,[7],0.957 µM (active)
same,AC50,[8],2.08 µM (active)
same,AC50,[9],1.79 µM (active)
O=c1c2cc([N+](=O)[O-])ccc2nc(CN2CCNCC2)n1-c1ccccc1,IC50,[10],< 0.168 µM (active)
same,IC50,[11],0.15 µM (active)
NC(=O)c1cccnc1 [NIACINAMIDE],IC50,[12],> 33.3 µM (inactive)
same,IC50,[13],> 40 µM (inactive)
same,IC50,[14],> 40 µM (inactive)
CC(C)(C)c1nnc(NC(=O)CCS(=O)(=O)c2ccccc2)s1,EC50,[15],> 150 µM (inactive)
same,EC50,[16],1.09 µM (active)
same,AC50,Paired box protein Pax-8,4.6 µM (active)
same,AC50,[17],> 52 µM (inactive)
same,AC50,[18],48.2 µM (active)
same,AC50,[19],50.7 µM (active)
same,AC50,[20],4.22 µM (active)
same,AC50,[21],> 100 µM (inactive)
same,AC50,[22],> 100 µM (inactive)
same,AC50,[23],25 µM (active)
O=C(NCc1nc2ccccc2[nH]1)C1=C[C@@H](c2ccc(Br)cc2)C[C@@H](OCCCCO)O1,IC50,[24],0.551 µM (active)
same,IC50,[25],83.3 µM (inactive)
same,IC50,[26],0.27 µM (active)
same,IC50,[27],48.4 µM (inactive)
[O-][n+]1c2c([n+]([O-])c3cc(N4CCCC4)c(F)cc31)CCC2,EC50,"Troponin, cardiac muscle",> 2.65 µM (active)
same,IC50,Fibrinogen beta chain [28],26.1 µM (inactive)
same,IC50,Fibrinogen beta chain [29],> 83.3 µM (inactive)
